Laboratory results as given in the supplement of paper PMC10307832.

How the values were obtained:
Test in all cases: relative viability (nuclei count vs DMSO), 5 days (fraction); higher = more cells survive
[1] = compound: C[C@@]1(C(=O)Nc2ccc(F)nc2)CCCN1c1nc(Nc2cc(C3CC3)n[nH]2)c2cccn2n1 + O=C(CCCCCCC(=O)Nc1ccccc1)NO [Vorinostat] (partner 1 µM)
Summary of the method: (§1)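 Relative viability equals treated-well nuclei counts divided by vehicle-well nuclei counts. Counts came from 4× images of lung cancer cell lines grown in 1536-well plates for 5 days after pin-tool dosing on the day after seeding. Dosing used one drug alone or a fixed anchor-drug dose plus five library-drug doses (not always all listed) in √10 steps, and values are medians of duplicate plates.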

[2] = compound: CC1(C)CNc2cc(NC(=O)c3cccnc3NCc3ccncc3)ccc21 [Motesanib] + O=C(c1cc(Cc2n[nH]c(=O)c3ccccc23)ccc1F)N1CCN(C(=O)C2CC2)CC1 [Olaparib] (partner 8 µM)
Summary of the method: as §1

[3] = compound: CC1(C)CNc2cc(NC(=O)c3cccnc3NCc3ccncc3)ccc21 [Motesanib] + Nc1nc2[nH]cc(CCc3ccc(C(=O)N[C@@H](CCC(=O)O)C(=O)O)cc3)c2c(=O)[nH]1 [Pemetrexed] (partner 0.2 µM)
Summary of the method: as §1

[4] = compound: C[C@@]1(C(=O)Nc2ccc(F)nc2)CCCN1c1nc(Nc2cc(C3CC3)n[nH]2)c2cccn2n1 + CS(=O)(=O)N1CCN(Cc2cc3nc(-c4cccc5[nH]ncc45)nc(N4CCOCC4)c3s2)CC1 [Pictilisib] (partner 1 µM)
Summary of the method: as §1

Cell Line	relative viability ([1]; first compound 0.04 µM)	relative viability ([1]; first compound 0.1265 µM)	relative viability ([1]; first compound 0.4 µM)	relative viability ([1]; first compound 1.265 µM)	relative viability ([2]; first compound 0.01 µM)	relative viability ([2]; first compound 0.03162 µM)	relative viability ([2]; first compound 0.1 µM)	relative viability ([2]; first compound 0.3162 µM)	relative viability ([2]; first compound 1 µM)	relative viability ([3]; first compound 0.01 µM)	relative viability ([3]; first compound 0.03162 µM)	relative viability ([3]; first compound 0.1 µM)	relative viability ([3]; first compound 0.3162 µM)	relative viability ([3]; first compound 1 µM)	relative viability ([4]; first compound 0.04 µM)	relative viability ([4]; first compound 0.1265 µM)	relative viability ([4]; first compound 0.4 µM)	relative viability ([4]; first compound 1.265 µM)
NCI-H1666	0.965	0.729	0.77	0.82	0.743	0.761	0.776	0.851	0.705	0.954	0.831	0.816	0.868	0.824	0.364	0.378	0.447	0.38
NCI-H1734	0.71	0.58	0.486	0.421	0.54	0.686	0.72	0.636	0.565	0.408	0.386	0.333	0.272	0.265	0.381	0.301	0.321	0.296
NCI-H1755	0.796	0.609	0.653	0.726	0.795	0.877	0.774	0.923	0.9	0.403	0.356	0.38	0.401	0.32	0.481	0.241	0.307	0.381
NCI-H1793	0.79	0.613	0.507	0.202	0.798	0.827	0.761	0.904	0.844	0.862	0.894	0.843	0.856	0.853	0.338	0.284	0.323	0.293
NCI-H1915	0.54	0.519	0.475	0.492	0.246	0.262	0.258	0.277	0.286	0.54	0.484	0.451	0.463	0.442	0.948	1.04	0.894	0.863
NCI-H1944	0.548	0.448	0.482	0.545	0.444	0.4	0.432	0.46	0.428	0.58	0.628	0.565	0.554	0.442	0.29	0.323	0.283	0.316
NCI-H1975	0.639	0.62	0.576	0.316	0.756	0.667	0.761	0.682	0.781	0.283	0.281	0.274	0.271	0.239	0.226	0.211	0.188	0.197
NCI-H1993	0.663	0.413	0.44	0.422	1.03	0.94	1.03	1.06	1.08	0.452	0.623	0.533	0.641	0.57	0.906	–	0.803	0.812
NCI-H2009	0.789	0.768	0.747	0.598	0.717	0.667	0.693	0.646	0.682	0.949	1.02	1.01	1.06	0.973	0.824	0.765	0.653	0.717
NCI-H2023	0.75	0.201	0.419	0.127	0.469	0.409	0.515	0.496	0.425	0.224	0.201	0.245	0.217	0.263	0.197	0.129	0.118	0.146
NCI-H2085	0.779	0.728	0.69	0.569	0.756	0.777	0.764	0.745	0.843	0.895	0.969	0.852	0.851	0.892	0.487	0.46	0.469	0.495
NCI-H2087	0.635	0.774	0.473	0.357	–	–	0.663	0.703	0.747	–	–	0.657	0.73	0.605	0.896	0.783	0.792	0.7
NCI-H2126	0.595	0.352	0.315	0.425	0.892	0.885	0.899	0.892	1	0.683	0.715	0.615	0.695	0.655	0.456	0.392	0.394	0.436
NCI-H2170	0.825	0.729	0.819	0.743	0.694	0.656	0.599	0.61	0.684	0.258	0.255	0.257	0.269	0.253	0.243	0.212	0.188	0.243
NCI-H2228	0.474	0.444	0.513	0.298	0.794	0.74	0.668	0.838	0.749	0.366	0.292	0.254	0.191	0.241	0.216	0.175	0.198	0.246
